Measurements: US11649227B2, “Allosteric chromenone inhibitors of phosphoinositide 3-kinase (PI3K) for the treatment of disease” (Petra Pharma Corporation, priority 2020, dated 2023)
Read-outs that look alike come from different tables or passages of the source.

Assays:
[1] = target: human full length PIK3CA Wild-type (p110α/p85α complex) (Homo sapiens (Human), UniProt P42336); test: PI3K-Alpha kinase (PIK3CA) activity, wild-type, Transcreener ADP2 FI assay; conditions: PI3K-α (PIK3CA) wild-type, biochemical
In short: (§1)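 Recombinant full-length p110α/p85α (1-5 nM, wild-type or H1047R) preincubated with compound 1 h at 27° C, then reacted with 25 uM ATP and 50 uM PIP2diC8 or membrane PIP2:PS in pH 7.4 HEPES, 25 mM MgCl2, 5% DMSO (also pH 6.0/6.4 MOPS). Run to ~2.5 uM ADP; Transcreener ADP2 fluorescence converted via ADP calibration for IC50.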

[2] = tested on: T-47D; test: Cellular Assay T-47D; type: cell-based; conditions: Homo sapiens, T47D; T-47D cells
[3] = target: human full length PIK3CA H1047R mutant (p110α/p85α complex) (Homo sapiens (Human), UniProt P42336, H1047R); test: PI3K-Alpha kinase (PIK3CA) activity, H1047R mutant, Transcreener ADP2 FI assay; conditions: PI3K-α (PIK3CA) H1047R mutant, biochemical
In short: as §1

[4] = target: mTOR (Homo sapiens (Human), UniProt P42345); test: Selectivity against selected lipid kinases: mTOR; type: biochemical
[5] = target: PI3K-G (Homo sapiens (Human), UniProt P48736); test: Selectivity against selected lipid kinases: PI3K-G; type: biochemical
[6] = target: PI3K-B (Homo sapiens (Human), UniProt P42338); test: Selectivity against selected lipid kinases: PI3K-B; type: biochemical
[7] = target: DNA-PK (Homo sapiens (Human), UniProt P78527); test: Selectivity against selected lipid kinases: DNA-PK; type: biochemical
[8] = Mouse PK Assays; conditions: in vivo; for clearance: read-out: PK-Mouse: IV Cl; for bioavailability: read-out: PK-Mouse: PO F (%)
[9] = target: PI3K-D (Homo sapiens (Human), UniProt O00329); test: Selectivity against selected lipid kinases: PI3K-D; type: biochemical
[10] = target: Vps34 (Homo sapiens (Human), UniProt Q8NEB9); test: Selectivity against selected lipid kinases: Vps34; type: biochemical
[11] = IV 1 mg/kg, read-out: PK-Mouse: IV-AUC-0-last
[12] = PO 10 mg/kg, 30% SBE-beta-cyclodextrin, fed
[13] = PO 50 mg/kg, 20% DMSO/60% PEG400/20% Water, fed
[14] = PO 50 mg/kg, 20% DMSO/60% PEG400/20% Water, fed, read-out: PK-Mouse: PO AUC-0-last
[15] = PO 10 mg/kg, 20% DMSO/60% PEG400/20% Water, fed

human full length PIK3CA Wild-type (p110α/p85α complex), sequence (P42336 whole entry): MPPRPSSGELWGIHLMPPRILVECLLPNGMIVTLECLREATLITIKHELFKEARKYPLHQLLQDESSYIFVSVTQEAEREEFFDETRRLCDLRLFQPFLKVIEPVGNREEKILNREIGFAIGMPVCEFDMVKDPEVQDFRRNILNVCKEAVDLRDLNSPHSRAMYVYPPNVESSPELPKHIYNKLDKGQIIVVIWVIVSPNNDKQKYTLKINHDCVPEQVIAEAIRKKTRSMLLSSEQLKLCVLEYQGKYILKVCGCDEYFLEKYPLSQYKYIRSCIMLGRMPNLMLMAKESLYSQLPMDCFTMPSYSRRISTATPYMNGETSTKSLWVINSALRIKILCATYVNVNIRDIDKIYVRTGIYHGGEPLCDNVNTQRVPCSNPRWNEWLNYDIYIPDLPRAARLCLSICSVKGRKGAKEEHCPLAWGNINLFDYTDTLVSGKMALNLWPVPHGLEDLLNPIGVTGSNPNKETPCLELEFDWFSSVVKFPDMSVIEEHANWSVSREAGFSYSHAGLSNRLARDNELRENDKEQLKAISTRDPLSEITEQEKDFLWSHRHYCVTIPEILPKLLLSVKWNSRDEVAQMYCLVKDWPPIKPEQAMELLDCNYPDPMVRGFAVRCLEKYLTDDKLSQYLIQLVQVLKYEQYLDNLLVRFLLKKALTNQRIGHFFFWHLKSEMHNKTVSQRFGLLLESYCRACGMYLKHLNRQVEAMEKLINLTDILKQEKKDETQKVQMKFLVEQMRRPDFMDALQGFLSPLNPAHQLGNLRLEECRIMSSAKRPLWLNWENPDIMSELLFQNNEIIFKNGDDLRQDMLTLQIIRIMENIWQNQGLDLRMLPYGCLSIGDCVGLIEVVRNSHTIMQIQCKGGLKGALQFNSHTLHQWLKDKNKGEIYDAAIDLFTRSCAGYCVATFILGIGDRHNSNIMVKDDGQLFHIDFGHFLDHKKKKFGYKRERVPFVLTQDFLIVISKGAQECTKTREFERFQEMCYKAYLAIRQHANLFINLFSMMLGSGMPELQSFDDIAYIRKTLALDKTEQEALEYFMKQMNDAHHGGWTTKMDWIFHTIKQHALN
human full length PIK3CA Wild-type (p110α/p85α complex), sequence (P27986 whole entry partner): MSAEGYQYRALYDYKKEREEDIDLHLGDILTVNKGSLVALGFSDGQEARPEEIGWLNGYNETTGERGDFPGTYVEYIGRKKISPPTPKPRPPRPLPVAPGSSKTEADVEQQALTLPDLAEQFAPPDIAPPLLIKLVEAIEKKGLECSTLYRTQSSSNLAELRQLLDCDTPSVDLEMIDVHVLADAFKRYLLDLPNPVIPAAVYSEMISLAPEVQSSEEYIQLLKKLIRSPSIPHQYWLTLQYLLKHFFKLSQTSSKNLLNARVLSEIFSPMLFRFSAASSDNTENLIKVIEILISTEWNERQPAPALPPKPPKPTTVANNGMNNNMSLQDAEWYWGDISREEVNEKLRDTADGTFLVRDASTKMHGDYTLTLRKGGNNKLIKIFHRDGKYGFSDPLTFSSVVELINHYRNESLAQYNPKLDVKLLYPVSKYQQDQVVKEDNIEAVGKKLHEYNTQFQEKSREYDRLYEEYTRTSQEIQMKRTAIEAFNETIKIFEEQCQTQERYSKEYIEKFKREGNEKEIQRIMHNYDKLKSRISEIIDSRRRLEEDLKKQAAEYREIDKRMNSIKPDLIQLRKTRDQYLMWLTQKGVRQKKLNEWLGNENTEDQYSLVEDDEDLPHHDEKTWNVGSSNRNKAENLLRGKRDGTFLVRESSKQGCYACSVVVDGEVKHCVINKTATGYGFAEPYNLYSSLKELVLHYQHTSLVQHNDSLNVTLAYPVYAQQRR
human full length PIK3CA H1047R mutant (p110α/p85α complex), sequence (P42336 whole entry H1047R): as the sequence (P42336 whole entry) above, with H1047R counted along it
human full length PIK3CA H1047R mutant (p110α/p85α complex), sequence (P27986 whole entry partner): as the sequence (P27986 whole entry partner) above
PI3K-G, sequence (P48736 whole entry): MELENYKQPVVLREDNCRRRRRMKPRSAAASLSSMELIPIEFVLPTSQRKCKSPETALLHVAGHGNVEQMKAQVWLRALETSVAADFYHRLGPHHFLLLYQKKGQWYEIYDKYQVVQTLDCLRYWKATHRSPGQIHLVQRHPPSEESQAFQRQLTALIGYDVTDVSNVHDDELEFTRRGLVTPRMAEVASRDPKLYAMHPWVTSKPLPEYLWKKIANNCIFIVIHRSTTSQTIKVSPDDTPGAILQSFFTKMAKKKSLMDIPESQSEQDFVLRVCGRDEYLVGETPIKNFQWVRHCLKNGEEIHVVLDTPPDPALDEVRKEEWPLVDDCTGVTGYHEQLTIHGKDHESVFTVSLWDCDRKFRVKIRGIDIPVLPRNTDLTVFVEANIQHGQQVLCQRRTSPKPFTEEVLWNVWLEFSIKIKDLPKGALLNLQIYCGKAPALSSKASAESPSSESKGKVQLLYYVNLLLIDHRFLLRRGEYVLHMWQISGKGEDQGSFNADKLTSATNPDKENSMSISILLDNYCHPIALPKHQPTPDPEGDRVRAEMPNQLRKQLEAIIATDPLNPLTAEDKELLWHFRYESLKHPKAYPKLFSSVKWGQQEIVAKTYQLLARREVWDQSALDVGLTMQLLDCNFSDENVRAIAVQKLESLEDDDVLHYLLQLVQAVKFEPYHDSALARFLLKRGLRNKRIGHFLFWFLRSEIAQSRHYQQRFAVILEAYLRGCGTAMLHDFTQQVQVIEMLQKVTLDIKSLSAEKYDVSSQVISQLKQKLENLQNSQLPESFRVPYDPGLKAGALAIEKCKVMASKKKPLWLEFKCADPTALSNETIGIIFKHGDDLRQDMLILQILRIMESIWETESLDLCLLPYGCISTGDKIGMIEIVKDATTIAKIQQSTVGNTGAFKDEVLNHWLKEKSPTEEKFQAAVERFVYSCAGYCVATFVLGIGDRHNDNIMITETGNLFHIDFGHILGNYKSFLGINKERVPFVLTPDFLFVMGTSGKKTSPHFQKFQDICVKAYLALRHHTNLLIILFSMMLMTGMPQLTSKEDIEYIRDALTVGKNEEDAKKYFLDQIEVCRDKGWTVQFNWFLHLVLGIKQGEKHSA
PI3K-B, sequence (P42338 whole entry): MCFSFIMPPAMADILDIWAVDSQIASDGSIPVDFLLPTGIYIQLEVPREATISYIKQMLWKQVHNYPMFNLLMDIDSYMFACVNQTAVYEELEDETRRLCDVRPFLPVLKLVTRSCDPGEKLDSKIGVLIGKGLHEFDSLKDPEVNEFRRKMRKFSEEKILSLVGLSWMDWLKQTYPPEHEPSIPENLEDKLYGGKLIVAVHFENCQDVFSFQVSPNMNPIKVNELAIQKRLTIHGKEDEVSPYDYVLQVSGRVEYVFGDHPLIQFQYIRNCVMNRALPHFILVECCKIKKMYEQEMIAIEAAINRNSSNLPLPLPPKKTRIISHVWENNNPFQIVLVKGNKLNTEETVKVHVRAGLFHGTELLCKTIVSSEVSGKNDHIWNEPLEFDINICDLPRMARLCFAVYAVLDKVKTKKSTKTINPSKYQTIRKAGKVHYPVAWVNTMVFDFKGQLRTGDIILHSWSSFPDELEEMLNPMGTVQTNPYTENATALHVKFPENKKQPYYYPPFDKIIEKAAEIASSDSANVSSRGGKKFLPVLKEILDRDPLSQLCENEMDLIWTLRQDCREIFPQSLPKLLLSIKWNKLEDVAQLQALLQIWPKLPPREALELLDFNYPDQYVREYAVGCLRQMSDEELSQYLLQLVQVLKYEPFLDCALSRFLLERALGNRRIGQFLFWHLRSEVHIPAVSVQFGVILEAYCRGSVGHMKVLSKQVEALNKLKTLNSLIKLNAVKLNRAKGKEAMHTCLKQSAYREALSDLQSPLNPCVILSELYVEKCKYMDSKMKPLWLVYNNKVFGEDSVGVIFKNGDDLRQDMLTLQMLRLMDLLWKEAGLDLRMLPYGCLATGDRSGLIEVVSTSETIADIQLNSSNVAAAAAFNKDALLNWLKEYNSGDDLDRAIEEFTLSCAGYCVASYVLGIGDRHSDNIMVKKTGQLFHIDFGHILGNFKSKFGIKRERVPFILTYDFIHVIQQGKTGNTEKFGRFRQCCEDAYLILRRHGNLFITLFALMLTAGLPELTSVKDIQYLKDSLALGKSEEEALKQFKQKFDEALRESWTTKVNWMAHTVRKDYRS
PI3K-B, sequence (P27986 whole entry partner): as the sequence (P27986 whole entry partner) above
Vps34, sequence (Q8NEB9 whole entry, species assumed): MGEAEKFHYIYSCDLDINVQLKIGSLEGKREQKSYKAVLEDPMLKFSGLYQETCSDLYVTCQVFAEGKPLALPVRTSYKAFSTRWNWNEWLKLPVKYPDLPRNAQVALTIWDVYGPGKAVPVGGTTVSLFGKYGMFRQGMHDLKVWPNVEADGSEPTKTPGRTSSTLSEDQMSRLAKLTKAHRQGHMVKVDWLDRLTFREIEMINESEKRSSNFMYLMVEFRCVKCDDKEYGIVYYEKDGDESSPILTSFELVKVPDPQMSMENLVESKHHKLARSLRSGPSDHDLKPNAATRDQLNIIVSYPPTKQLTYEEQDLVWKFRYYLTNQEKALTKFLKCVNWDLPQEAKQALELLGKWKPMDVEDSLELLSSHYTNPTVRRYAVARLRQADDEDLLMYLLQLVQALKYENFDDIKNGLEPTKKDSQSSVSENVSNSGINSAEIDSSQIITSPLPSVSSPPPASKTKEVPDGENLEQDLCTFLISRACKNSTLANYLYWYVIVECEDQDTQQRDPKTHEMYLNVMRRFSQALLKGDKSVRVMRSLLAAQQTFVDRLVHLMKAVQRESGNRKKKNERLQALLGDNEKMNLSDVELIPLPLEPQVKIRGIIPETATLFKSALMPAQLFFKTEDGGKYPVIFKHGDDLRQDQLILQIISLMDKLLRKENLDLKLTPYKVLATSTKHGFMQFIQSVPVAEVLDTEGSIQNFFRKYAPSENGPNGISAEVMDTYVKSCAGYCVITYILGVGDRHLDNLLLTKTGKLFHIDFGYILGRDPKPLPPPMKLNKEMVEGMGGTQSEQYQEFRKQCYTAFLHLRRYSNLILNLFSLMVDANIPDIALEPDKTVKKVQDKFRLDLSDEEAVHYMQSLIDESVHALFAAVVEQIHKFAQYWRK

| Structure (SMILES) | IC50 [1] [µM] | EC50 [2] [µM] | IC50 [3] [µM] | IC50 [4] [µM] | IC50 [5] [µM] | IC50 [6] [µM] | IC50 [7] [µM] | clearance ([8]; IV 1 mg/kg) [mL/min/kg] | AUC(0-t) [8, 11] [ng·h/mL] | Cmax [8, 13] [ng/mL] | AUC(0-t) [8, 14] [ng·h/mL] | IC50 [9] [µM] | IC50 [10] [µM] | further results |
| --- | --- | --- | --- | --- | --- | --- | --- | --- | --- | --- | --- | --- | --- | --- |
| Cc1cc(C(C)Nc2ccccc2C(=O)O)c2oc(N3CCC(F)(F)CC3)cc(=O)c2c1 (single isomer, unassigned) [Example 130, 2-[1-[2-(4,4-Difluoro-1-piperidyl)-6-methyl-4-oxo-chromen-8-yl]ethylamino]benzoic acid] | 1 to 5 | 1 to 5 | < 0.5 | – | – | – | – | – | – | – | – | – | – | – |
| Cc1cc(C(C)Nc2ccccc2C(=O)O)c2oc(N3CCC(C)(C)CC3)cc(=O)c2c1 (single isomer, unassigned) [Example 366, 2-[1-[2-(4,4-Dimethyl-1-piperidyl)-6-methyl-4-oxo-chromen-8-yl]ethylamino]benzoic acid] | – | 1 to 5 | – | > 10 | > 10 | > 10 | > 10 | 43 | 343 | 8.56 | 48 | > 10 | > 10 | Cmax [8, 12]: 350 ng/mL; AUC(0-t) ([8]; PO 10 mg/kg, 30% SBE-beta-cyclodextrin, fed, read-out: PK-Mouse: PO AUC-0-last): 3.9 ng·h/mL; bioavailability [8, 12]: 100%; Cmax ([8]; PO 100 mg/kg, 20% DMSO/60% PEG400/20% H2O, fed): 22.6 ng/mL; AUC(0-t) ([8]; PO 100 mg/kg, 20% DMSO/60% PEG400/20% H2O, fed, read-out: PK-Mouse: PO AUC-0-last): 76 ng·h/mL |
| Cc1cc(C(C)Nc2ccccc2C(=O)O)c2oc(N3CCC4(CCCCO4)CC3)cc(=O)c2c1 (stereo not drawn) [Example 93, 2-[1-[6-Methyl-2-(1-oxa-9-azaspiro[5.5]undecan-9-yl)-4-oxo-chromen-8-yl]ethylamino]benzoic acid] | 5 to 10 | 5 to 15 | 0.5 to 1 | – | – | – | – | – | – | – | – | – | – | – |
| Cc1cc(C(C)Nc2ccccc2C(=O)O)c2oc(N3CCC4(CCCC4)CC3)cc(=O)c2c1 (stereo not drawn) [Example 96, 2-[1-[2-(8-Azaspiro[4.5]decan-8-yl)-6-methyl-4-oxo-chromen-8-yl]ethylamino]benzoic acid] | 1 to 5 | 1 to 5 | 0.5 to 1 | – | – | – | – | – | – | – | – | – | – | – |
| Cc1cc(C(C)Nc2ccccc2C(=O)O)c2oc(N3Cc4ccccc4C3)cc(=O)c2c1 (single isomer, unassigned) [Example 363, 2-[1-(2-Isoindolin-2-yl-6-methyl-4-oxo-chromen-8-yl)ethylamino]benzoic acid] | – | 1 to 5 | – | 7.8 | > 10 | 0.11 | 0.98 | 8.2 | 2130 | 5100 | 31000 | > 10 | 0.45 | Cmax [8, 15]: 1300 ng/mL; AUC(0-t) ([8]; PO 10 mg/kg, 20% DMSO/60% PEG400/20% Water, fed, read-out: PK-Mouse: PO AUC-0-last): 18000 ng·h/mL; bioavailability [8, 15]: 87%; bioavailability [8, 13]: 33% |
| Cc1cc(C(C)Nc2ccccc2C(=O)O)c2oc(N3CCC4(CC3)CN(C)C(=O)O4)cc(=O)c2c1 (stereo not drawn) [Example 380, 2-[1-[6-Methyl-2-(3-methyl-2-oxo-1-oxa-3,8-diazaspiro[4.5]decan-8-yl)-4-oxo-chromen-8-yl]ethylamino]benzoic acid] | – | > 24 | 1 to 5 | – | – | – | – | – | – | – | – | – | – | – |
